Experimental data: PubChem BioAssay (NCI)
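All cell lines were grown in 96-well plates and treated with compound for 48 hours. TGI marks complete inhibition of growth.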

How the values were obtained:
Experiment in all cases: NCI tumour cell line growth inhibition, 48 h
T-47D breast = test system: T-47D breast
EKVX NSCLC = test system: EKVX NSCLC
DU-145 prostate = test system: DU-145 prostate
SF-268 CNS = test system: SF-268 CNS
BT-549 breast = test system: BT-549 breast
SK-MEL-28 melanoma = test system: SK-MEL-28 melanoma
RPMI-8226 leukemia = test system: RPMI-8226 leukemia
SF-539 CNS = test system: SF-539 CNS
HOP-62 NSCLC = test system: HOP-62 NSCLC
OVCAR-3 ovarian = test system: OVCAR-3 ovarian
MDA-N = test system: MDA-N

| Structure (SMILES) | TGI (T-47D breast) | TGI (EKVX NSCLC) | TGI (DU-145 prostate) | TGI (SF-268 CNS) | TGI (BT-549 breast) | TGI (SK-MEL-28 melanoma) | TGI (RPMI-8226 leukemia) | TGI (SF-539 CNS) | TGI (HOP-62 NSCLC) | TGI (OVCAR-3 ovarian) | TGI (MDA-N) |
| --- | --- | --- | --- | --- | --- | --- | --- | --- | --- | --- | --- |
| O=C(O)c1ccc2nc(-c3ccccn3)c(-c3ccccn3)nc2c1 | > 100 µM | > 100 µM | > 100 µM | > 100 µM | > 100 µM | > 100 µM | > 100 µM | > 100 µM | > 100 µM | – | – |
| CN1CN(c2ccccc2)C2(CCN(CCCN(C)c3ccc(F)cc3)CC2)C1=O | 41.7 µM | – | 76.1 µM | 54.6 µM | 31.1 µM | 37.9 µM | 80.4 µM | 39.7 µM | 32.1 µM | 31.7 µM | 30.7 µM |
| Cc1[nH]n(C(=O)Cc2ccccc2)c(=O)c1/C=C1\C(=O)C=Cc2ccccc21 | – | > 100 µM | – | > 100 µM | – | > 100 µM | > 100 µM | 75.2 µM | > 100 µM | > 100 µM | – |
| CS(=O)(=O)Sc1ccc(Cl)cc1 | – | 18.3 µM | – | 12.7 µM | – | 23.9 µM | 41.9 µM | 10.9 µM | 5.29 µM | 19.3 µM | – |
| CC(C)c1cc(C(C)C)c(S(=O)(=O)N/N=C2\CC3CCC2(C)C3(C)C)c(C(C)C)c1 (stereo unspecified) | 68 µM | 71.5 µM | > 100 µM | > 100 µM | > 100 µM | > 100 µM | 21.2 µM | – | > 100 µM | > 100 µM | 64.8 µM |
| Nc1cc2c(C3OC(CO)C(O)C3O)[nH]nc2c(=S)[nH]1 (stereo unspecified) | – | > 100 µM | – | > 100 µM | – | > 100 µM | > 100 µM | > 100 µM | > 100 µM | – | – |
| COc1nc2c(c(=O)[nH]1)N=C(c1ccc([N+](=O)[O-])cc1)CC(c1ccccc1)N2 (stereo unspecified) | – | > 100 µM | > 100 µM | – | > 100 µM | > 100 µM | > 100 µM | > 100 µM | > 100 µM | > 100 µM | > 100 µM |
| O=[N+]([O-])c1cccc(-c2ccc([C@H]3CC(c4ccc(Cl)cc4)=NN3)o2)c1 | 41.7 µM | > 100 µM | 50.1 µM | > 100 µM | 74.9 µM | – | 45.6 µM | – | 57.9 µM | 43.3 µM | 66.7 µM |
| O=c1[nH]c2ccccc2c(=O)c2cc3ccccc3cc12 | > 100 µM | > 100 µM | > 100 µM | 28.2 µM | 45.2 µM | > 100 µM | – | > 100 µM | 25.9 µM | > 100 µM | > 100 µM |
| C/C(=N\NC(N)=O)C(CN1CCOCC1)C(c1ccccc1)c1c(O)c2ccccc2oc1=O (stereo unspecified) | – | > 100 µM | > 100 µM | > 100 µM | > 100 µM | > 100 µM | > 100 µM | > 100 µM | – | > 100 µM | > 100 µM |
| Cc1cccc2c(=O)c3cccc(CC(=O)O)c3oc12 | > 100 µM | > 100 µM | – | > 100 µM | – | > 100 µM | > 100 µM | > 100 µM | > 100 µM | > 100 µM | > 100 µM |
| C[N+](C)(C)CC(=O)N/N=C\c1c(O)ccc2ccccc12 | > 100 µM | > 100 µM | > 100 µM | 69.8 µM | – | > 100 µM | > 100 µM | > 100 µM | > 100 µM | > 100 µM | > 100 µM |
| COC(=O)c1c(C(=O)OC)c2ccccn2c1-c1cc(C)cc2c1C(=O)C=CC2=O | 7.83 µM | 21.7 µM | 20.1 µM | 20.8 µM | – | 17.9 µM | 8.9 µM | 15.7 µM | 21.7 µM | 15.6 µM | 15.3 µM |
| COc1cccc(O)c1-c1cc(=O)c2c(O)c(OC)c(OC)c(OC)c2o1 | – | > 100 µM | 58.9 µM | > 100 µM | 73.6 µM | > 100 µM | 58.4 µM | > 100 µM | 44.4 µM | 66.3 µM | 49.2 µM |
| C=C1C(=O)O[C@H]2[C@@H]3O[C@@](C)(CC/C=C(\C)CCC[C@@H]2C)[C@H](O)C[C@@H]13 | 16.8 µM | > 100 µM | 27.2 µM | > 100 µM | 8.1 µM | 38.8 µM | – | 5.6 µM | 23.1 µM | 9.54 µM | 10.1 µM |
| CSc1cnc2ccccc2c1Sc1cn(C)c2ccccc2c1=O | – | > 100 µM | – | > 100 µM | – | > 100 µM | > 100 µM | > 100 µM | 57.3 µM | 95.5 µM | – |
| O=C1C/C(=C\c2ccccc2)C(=O)c2ccccc2N1 | 78.1 µM | 48.5 µM | 59.4 µM | 98.4 µM | – | 55.8 µM | – | 39.4 µM | 56.6 µM | 50.5 µM | 47.8 µM |
| CC1=C(C(N)=O)C(c2ccncc2)C(C#N)C(=O)N1 (stereo unspecified) | > 100 µM | > 100 µM | > 100 µM | > 100 µM | – | > 100 µM | > 100 µM | > 100 µM | > 100 µM | – | – |
| COc1ccc(N(c2ccc(C#N)cc2)c2ccc(C#N)cc2)cc1 | 77.6 µM | > 100 µM | > 100 µM | > 100 µM | > 100 µM | > 100 µM | – | > 100 µM | > 100 µM | > 100 µM | > 100 µM |
| NC(Cc1c2ccccc2cc2ccccc12)C(=O)O (stereo unspecified) | > 100 µM | > 100 µM | > 100 µM | > 100 µM | – | > 100 µM | – | > 100 µM | > 100 µM | > 100 µM | – |
| CCO/C=N\C1=C(C#N)SC2=N/C(=C\c3ccco3)C(=O)N21 | > 100 µM | > 100 µM | > 100 µM | > 100 µM | – | > 100 µM | > 100 µM | > 100 µM | > 100 µM | > 100 µM | > 100 µM |
| c1ccc2sc(C3(N4CCCCCC4)CCCCC3)cc2c1 | – | 43.9 µM | > 100 µM | 52.5 µM | 61.2 µM | 55 µM | – | 46.1 µM | 86.8 µM | 38.6 µM | 97.6 µM |
| C[C@@H](NC(=O)Nc1cccc(C(=O)Nc2cc(C(C)(C)C)ccc2C(=O)O)n1)c1ccccc1 | > 100 µM | > 100 µM | > 100 µM | > 100 µM | > 100 µM | > 100 µM | > 100 µM | – | 86.1 µM | 51.1 µM | > 100 µM |
